Literature values in patent US20250228808A1, “COMPOSITIONS AND METHODS FOR THE TREATMENT OF CORONAVIRUS DISEASES” (priority 2022, published 2025).

Assays:
[1] = entry into the cell
[2] = Lu S C 2000
[3] = Sansone 2011

Row | SMILES | membrane permeability [1] | half-life in the blood [2] | fraction of dose excreted by the kidneys [3]
1 | N[C@@H](CCC(=O)N[C@@H](CS)C(=O)NCC(=O)O)C(=O)O [GSH, glutathione] | membrane-impermeable | seconds to minutes | –
2 | CC(=O)N[C@@H](CS)C(=O)O [NAC, N-acetyl cysteine] | – | – | one-third
